Read-outs that look alike come from different tables or passages of the source. Values belong to the compound of their own block, whether it stands above or below them.
Test system: PMA-differentiated THP-1 cells
Experiment: IL-1β production in PMA-differentiated THP-1 cells stimulated with gramicidin (hTHP-1 assay containing 2% fetal bovine serum; Procedures 1 and 2)
Type: cell-based, human
Details: 2% fetal bovine serum
Outline: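 Compound titrations in 0.37% final DMSO were added to THP-1 cells that had been plated after 16-18 h PMA treatment, 50,000 per well in 2% FBS. One hour later the cells received gramicidin (5 μM, 2 h) and were centrifuged. HTRF detected IL-1β in the collected supernatants.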

[1] = Homo sapiens, THP-1, Table B2, class symbols, read-out: hTHP-1 IC50
[2] = Table B1, class symbols, read-out: Average IC50 of compounds in hTHP-1 assay: hTHP-1 IC50
[3] = Homo sapiens, THP-1, Table B1, numeric bounds, read-out: Average IC50 of compounds in hTHP-1 assay: hTHP-1 IC50
[4] = Table B2, class symbols, read-out: hTHP-1 IC50
[5] = Homo sapiens, THP-1, Table B1, class symbols, read-out: Average IC50 of compounds in hTHP-1 assay: hTHP-1 IC50
[6] = Homo sapiens, THP-1, Table B3, hTHP-1 assay, class symbols, read-out: IC50
[7] = Table B4, class symbols, read-out: hTHP-1 IC50

IC50 [1]: 5 to 30 µM
Structure (SMILES): N[S@](=O)(=NC(=O)Nc1c2c(nc(C3CC3)c1C1CC1)CCC2)c1ccn(C(F)F)n1 [Compound 728a]

IC50 [2]: 1 to 5 µM
Structure (SMILES): CC(C)(O)c1cc(F)c(S(N)(=O)=NC(=O)Nc2c3c(nc4c2CCC42CC2)CCC3)s1 (single isomer, unassigned) [Compound 101a, (S) or (R)-3-fluoro-5-(2-hydroxypropan-2-yl)-N′-((1′,5′,6′,7′-tetrahydro-2′H-spiro[cyclopropane-1,3′-dicyclopenta[b,e]pyridin]-8′-yl)carbamoyl)thiophene-2-sulfonimidamide]

IC50 (Table B3, hTHP-1 assay, class symbols, read-out: IC50): 0.2 to 1 µM
Structure (SMILES): CCn1ccc(S(N)(=O)=NC(=O)Nc2c3c(nc4c2CCC42CC2)CCC3)n1 (single isomer, unassigned) [Example 687, (R) or (S)-1-Ethyl-N′-((1′,5′,6′,7′-tetrahydro-2′H-spiro[cyclopropane-1,3′-dicyclopenta[b,e]pyridin]-8′-yl)carbamoyl)-1H-pyrazole-3-sulfonimidamide]

IC50 [3]: > 30 µM
Structure (SMILES): CN(C)Cc1ccc(S(=O)(=NC(=O)Nc2c3c(nc4c2CCC4)CCC3)NC(=O)OC(C)(C)C)cc1 (stereo not shown) [Compound 113, tert-butyl (4-((dimethylamino)methyl)-N-((1,2,3,5,6,7-hexahydrodicyclopenta[b,e]pyridin-8-yl)carbamoyl)phenylsulfonimidoyl)carbamate]

IC50 [2]: 5 to 30 µM
Structure (SMILES): Cc1c(C2CC2)nc2c(c1NC(=O)N=S(N)(=O)c1sc(C(C)(C)O)cc1F)CCC2 (single isomer, unassigned) [Compound 174a, (R) or (S)-N′-((2-cyclopropyl-3-methyl-6,7-dihydro-5H-cyclopenta[b]pyridin-4-yl)carbamoyl)-3-fluoro-5-(2-hydroxypropan-2-yl)thio-phene-2-sulfonimidamide]

IC50 [4]: 5 to 30 µM
Structure (SMILES): CCc1csc(S(N)(=O)=NC(=O)Nc2c3c(nc4c2CC[C@H]4C)CCC3)c1 (single isomer, unassigned) [Compound 721a, (S) or (R)-4-Ethyl-N′-(((R)-3-methyl-1,2,3,5,6,7-hexahydrodicyclopenta[b, e]pyridin-8-yl)carbamoylithiophene-2-sulfonimidamide]

IC50 [5]: 1 to 5 µM
Structure (SMILES): CC(C)(O)c1nc(CCO)c(S(N)(=O)=NC(=O)Nc2c3c(nc4c2CCC4)CCC3)s1 (stereo not shown) [Compound 118, N-((1,2,3,5,6,7-hexahydrodicyclopenta[b,e]pyridin-8-yl)carbamoyl)-4-(2-hydroxyethyl)-2-(2-hydroxypropan-2-yl)thiazole-5-sulfonimidamide]

IC50 [6]: 5 to 30 µM
Structure (SMILES): Cc1c(C(F)(F)F)nc2c(c1NC(=O)N=S(N)(=O)c1cnn3c1OC[C@H](O)C3)CCC2 (stereo partly drawn) [Example 601, (6R)-6-hydroxy-N′-((3-methyl-2-(trifluoromethyl)-6,7-dihydro-5H-cyclopenta[b]pyridin-4-yl)carbamoyl)-6,7-dihydro-5H-pyrazolo[5,1-b][1,3]oxazine-3-sulfonimidamide]

IC50 [7]: 5 to 30 µM
Structure (SMILES): CCn1cc(F)c(S(N)(=O)=NC(=O)Nc2c(-c3ccccc3)cnc3c2CCC3)n1 (single isomer, unassigned) [Example 794, (S) or (R)-1-ethyl-4-fluoro-N′-((3-phenyl-6,7-dihydro-5H-cyclopenta[b]pyridin-4-yl)carbamoyl)-1H-pyrazole-3-sulfonimidamide]

IC50 (Homo sapiens, THP-1, Table B4, class symbols, read-out: hTHP-1 IC50): 0.04 to 0.2 µM
Structure (SMILES): CCn1cc(F)c(S(N)(=O)=NC(=O)Nc2c3c(nc(C(F)(F)F)c2-c2ccc(F)cc2)CCC3)n1 (stereo not shown) [Example 733, 1-Ethyl-4-fluoro-N′-((3-(4-fluorophenyl)-2-(trifluoromethyl)-6,7-dihydro-5H-cyclopenta[b]pyridin-4-yl)carbamoyl)-1H-pyrazole-3-sulfonimidamide]

IC50 [1]: 1 to 5 µM
Structure (SMILES): Cc1c(C(F)F)nc2c(c1NC(=O)N=S(N)(=O)c1cnc(C(C)(C)O)s1)CCC2 (stereo not shown) [Compound 647, N′-((2-(difluoromethyl)-3-methyl-6,7-dihydro-5H-cyclopenta[b]pyridin-4-yl)carbamoyl)-2-(2-hydroxypropan-2-yl)thiazole-5-sulfonimidamide]

IC50 [2]: 0.04 to 0.2 µM
Structure (SMILES): CC(C)(O)c1csc(S(N)(=O)=NC(=O)Nc2c3c(nc4c2CCC4)CCC3)c1 (single isomer, unassigned) [Compound 155a, (R) or (S)-N′-((1,2,3,5,6,7-hexahydrodicyclo-penta[b,e]pyridin-8-yl)carbamoyl)-4-(2-hydroxypropan-2-yl)thiophene-2-sulfonimidamide]

IC50 [1]: 1 to 5 µM
Structure (SMILES): Cc1c(C2(F)CC2)nc2c(c1NC(=O)N=S(N)(=O)c1sc(C(C)(C)O)cc1F)CCC2 (stereo not shown) [Compound 733]

IC50 [7]: 0.2 to 1 µM
Structure (SMILES): CCn1cc(F)c(S(N)(=O)=NC(=O)Nc2c3c(nc(C(F)(F)F)c2-c2cccc(F)c2)CCC3)n1 (single isomer, unassigned) [Example 782, (S) or (R)-1-ethyl-4-fluoro-N′-((3-(3-fluorophenyl)-2-(trifluoromethyl)-6,7-dihydro-5H-cyclopenta[b]pyridin-4-yl)carbamoyl)-1H-pyrazole-3-sulfonimidamide]

IC50 [7]: 5 to 30 µM
Structure (SMILES): Cc1c(C(F)(F)F)nc(C(F)(F)F)c(C)c1NC(=O)N=S(N)(=O)c1cc(C(C)(C)O)cs1 (single isomer, unassigned) [Example 756, (S) or (R)-N′-((3,5-dimethyl-2,6-bis(trifluoromethyl)pyridin-4-yl)carbamoyl)-4-(2-hydroxypropan-2-yl)thiophene-2-sulfonimidamide]

IC50 [5]: 5 to 30 µM
Structure (SMILES): CC(C)(O)c1ncc(S(N)(=O)=NC(=O)Nc2c3c(nc4c2CCC4O)CCC3)s1 (stereo not shown) [Compound 178, N′-((3-hydroxy-1,2,3,5,6,7-hexahydrodicyclopenta[b,e]pyridin-8-yl)carbamoyl)-2-(2-hydroxypropan-2-yl)thiazole-5-sulfonimidamide]

IC50 [1]: 1 to 5 µM
Structure (SMILES): CC(C)c1nc(C(F)(F)F)nc(C(C)C)c1NC(=O)N=S(N)(=O)c1sc(C(C)(C)O)nc1CO (stereo not shown) [Compound 713]

IC50 [1]: 5 to 30 µM
Structure (SMILES): Cc1cn(C(C)C)nc1S(N)(=O)=NC(=O)Nc1c2c(nc3c1CCC3)CCC2 (single isomer, unassigned) [Compound 687b, (R) or (S)-N′-((1,2,3,5,6,7-hexahydrodicyclopenta [b,e]pyridin-8-yl)carbamoyl)-1-isopropyl-4-methyl-1H-pyrazole-3-sulfonimidamide]

IC50 [3]: > 27 µM
Structure (SMILES): CC(C)c1ncc(F)c(C(C)C)c1NC(=O)N=S(N)(=O)c1ccc(CN(C)C)cc1 (stereo not shown) [Compound 132, 4-((dimethylamino)methyl)-N′-((5-fluoro-2,4-diisopropylpyridin-3-yl)carbamoyl)benzenesulfon-imidamide]

IC50 (Homo sapiens, THP-1, Table B2, numeric bounds, read-out: hTHP-1 IC50): > 30 µM
Structure (SMILES): Cc1c(C2(C)CC2)nc2c(c1NC(=O)N=S(N)(=O)c1cnc(C(C)(O)CO)s1)CCC2 (stereo not shown) [Compound 707]

IC50 [7]: 0.008 to 0.04 µM
Structure (SMILES): CCn1cc(F)c(S(N)(=O)=NC(=O)Nc2c3c(nc(C(F)(F)F)c2-c2cccc(F)c2)CCC3)n1 (stereo not shown) [Example 747, 1-Ethyl-4-fluoro-N′-((3-(3-fluorophenyl)-2-(trifluoromethyl)-6,7-dihydro-5H-cyclopenta[b]pyridin-4-yl)cathamoyl)-1H-pyrazole-3-sulfonimidamide]

IC50 [1]: 1 to 5 µM
Structure (SMILES): C[C@@H]1CCc2c1nc1c(c2NC(=O)N=S(N)(=O)c2ccn(-c3ccccc3)n2)CCC1 (stereo partly shown) [Compound 646a]

IC50 [6]: 1 to 5 µM
Structure (SMILES): Cc1c(C(F)(F)F)nc2c(c1NC(=O)N=[S@@](N)(=O)c1cnc(C(C)(C)O)s1)C(C)CC2 (stereo partly drawn) [Example 575, (R)-N′-((3,5-dimethyl-2-(trifluoromethyl)-6,7-dihydro-5H-cyclopenta[b]pyridin-4-yl)carbamoyl)-2-(2-hydroxypropan-2-yl)thiazole-5-sulfonimidamide]

IC50 [4]: 0.2 to 1 µM
Structure (SMILES): CC(C)(O)c1sc(S(N)(=O)=NC(=O)Nc2c3c(nc4c2CCC4)CCC3)cc1Cl (single isomer, unassigned) [Compound 688a, (R) or (S)-4-Chloro-N′-((1,2,3,5,6,7-hexahydrodicyclopenta [b,e]pyridin-8-yl)carbamoyl)-5-(2-hydroxypropan-2-yl)thiophene-2-sulfonimidamide]

IC50 [1]: 0.04 to 0.2 µM
Structure (SMILES): Cc1c(C(C)C)nc2c(c1NC(=O)N=S(N)(=O)c1cc(C(C)(C)O)cs1)CCC2 (stereo not shown) [Compound 681, 4-(2-Hydroxypropan-2-yl)-N′-((2-isopropyl-3-methyl-6,7-dihydro-5H-cyclopenta[b]pyridin-4-yl)carbamoyl)thiophene-2-sulfonimidamide]

IC50 [6]: 0.2 to 1 µM
Structure (SMILES): CCc1ncc(S(N)(=O)=NC(=O)Nc2c3c(nc4c2CC[C@H]4C)CCC3)s1 (stereo partly drawn) [Example 629, 2-Ethyl-N′-(((R)-3-methyl-1,2,3,5,6,7-hexahydrodicyclopenta[b,e]pyridin-8-yl)carbamoyl)thiazole-5-sulfonimidamide]

IC50 [7]: 0.008 to 0.04 µM
Structure (SMILES): CCn1cc(F)c(S(N)(=O)=NC(=O)Nc2c3c(nc(C(F)(F)F)c2-c2ccccc2)CCC3)n1 (single isomer, unassigned) [Example 767, (R) or (S)-1-ethyl-4-fluoro-N′-((3-phenyl-2-(trifluoromethyl)-6,7-dihydro-5H-cyclopenta[b]pyridin-4-yl)carbamoyl)-1H-pyrazole-3-sulfonimidamide]

IC50 [6]: 1 to 5 µM
Structure (SMILES): CC(C)n1nc(S(N)(=O)=NC(=O)Nc2c3c(nc4c2CCC42CC2)CCC3)cc1CO (single isomer, unassigned) [Example 641, (R) or (S)-5-(hydroxymethyl)-1-isopropyl-N′-((1′,5′,6′,7′-tetrahydro-2′H-spiro[cyclopropane-1,3′-dicyclopenta[b,e]pyridin]-8′-yl)carbamoyl)-1H-pyrazole-3-sulfonimidamide]

Reference: US20230031406A1, “COMPOUNDS AND COMPOSITIONS FOR TREATING CONDITIONS ASSOCIATED WITH NLRP ACTIVITY” (Novartis AG, priority 2018, published 2023)
